Laboratory results as given in patent US8597692B2, “Cocoa extract and use thereof” (Barry Callebaut AG, priority 2007, dated 2013).

Columns and labels:
[1] = Body weight during the experimental period (Example 1); type: in vivo, rat; details: 14-day treatment; CPE 24 and 48 mg/kg, Imipramine 15 mg/kg PO; IMI difference from D5 to D14
Experimental: (§1) An open field (40 cm high×60 cm in diameter) divided into 9 areas (8 equal squares and the central zone) is used for the measurement of locomotor and behavioral activity, to exclude the possibility that immobility is due to locomotion problems. The experimental devices for the forced swimming test are plexiglas cylinders (50 cm high×20 cm in diameter) filled to 30 cm depth with water at 25° C. In the slightly lit test room, a CCD-TV camera allows the rats to be observed and filmed on VHS-videotapes from a neighbouring room. During the experimental period, rats are weighed 3 times per week, i.e. Monday, Wednesday and Friday. Each rat is individually placed for 3 min in the center of the open field device 5 hours after the 13th treatment and 15 min before the forced swim test pretest session. This test is performed in order to test the effects of the products used on the locomotor activity of the animals and confirm that the results in the forced swim relate to the animal's mental state as opposed to locomotor ability. Immobility is defined as absence of swimming activity other than that necessary to keep the rat's head above the water. Imipramine (15 mg/kg BW, PO) is used as the antidepressant reference substance.

[2] = test system: Male Wistar-Unilever rats; assay: Open field test of locomotor and behavioral activity (Example 1); type: in vivo, rat; details: 3 min, 5 hours after the 13th treatment; CPE 24 and 48 mg/kg, Imipramine 15 mg/kg PO
Experimental: as §1

[3] = test system: Male Wistar-Unilever rats; assay: Forced swimming test in rat model for depression (Example 1); type: in vivo
Experimental: Male Wistar-Unilever rats (HsdCpb:WU) (Harlan, Horst, The Netherlands), weighing 200 to 225 g are weighed and randomly divided into 4 groups (n=12). Cocoa extract according to the invention comprising by weight 54-58% polyphenols, 8-9% theobromine, and 0.5-1.5% phenylethylamine is dissolved in spring water and stirred until homogenization just before its administration at the doses of 24 and 48 mg/kg BW, PO, in a volume of administration of 10 ml/kg BW.
The test product is orally administered for 14 days twice a day (2×12 and […]) in the morning and in the afternoon Imipramine (Sigma, France) was stored at room temperature and prepared fresh before testing. It is dissolved in spring water and stirred until homogenization just before its administration at a dose of 15 mg/kg BW, PO, in a volume of administration of 10 ml/kg. Imipramine is administered once a day.
as §1
The test product and the vehicle are orally administered for 14 days, twice a day in the morning and in the afternoon. On D13, the products are administered just after the pretest session which lasted 15 minutes. On D14 the products are administered five hours and one hour prior to the forced swimming test. The test session lasts 5 minutes. The first five minutes of the initial 15-min swimming pretest and the 5-min swimming test session are videotaped for scoring the duration of immobility. Imipramine (15 mg/kg BW, PO) is used as the antidepressant reference substance.

Structure (SMILES): CN(C)CCCN1c2ccccc2CCc2ccccc21 [IMI, Imipramine]
- body weight compared with the other groups [1]: significantly lower
- overt behavioral changes or motor dysfunction in the open field test [2]: Neither administration of Imipramine nor CPE showed significant differences
- duration of immobility, Test (Mean ± SEM) ([3]; 5-min test session, D14, 15 mg/kg BW PO once a day, n = 12): 10.33 ± 1.79
- change of duration of immobility from pretest to test session (paired t-test) ([3]; CPE 24 and 48 mg/kg, Imipramine 15 mg/kg PO): significantly decreased
- duration of immobility in comparison with vehicle, pretest session (Dunnett's t test) ([3]; pretest session after a 13 day-period of treatment, Imipramine 15 mg/kg PO): significantly reduced
- duration of immobility, Pretest (Mean ± SEM) ([3]; pretest session, first 5 min, D13, 15 mg/kg BW PO once a day, n = 12): 21.25 ± 3.70
- durations of immobility in comparison with vehicle, test session (Dunnett's t test) ([3]; test session D14, CPE 24 and 48 mg/kg, Imipramine 15 mg/kg PO): significantly reduced
